Experimental data: the NIST ThermoML archive (doi:10.1021/je800895q)

CCCCCCn1cc[n+](C)c1.F[P-](F)(F)(F)(F)F [1-hexyl-3-methylimidazolium hexafluorophosphate]
Details | surface tension liquid-gas [mN/m]
284.3 K | 39.12
284.36 K | 39.1
288.16 K | 38.86
288.25 K | 38.81
293.48 K | 38.6
293.56 K | 38.7
298.97 K | 38.25
299.02 K | 38.21
303.58 K | 37.99
303.67 K | 37.89
308.56 K | 37.61
308.58 K | 37.78
313.45 K | 37.26
313.53 K | 37.3
318.45 K | 36.88
318.5 K | 36.94
323.12 K | 36.67
323.16 K | 36.78
327.89 K | 36.28
327.92 K | 36.29
333.78 K | 36.05
333.82 K | 35.99
337.92 K | 35.68
337.94 K | 35.74
343.05 K | 35.48
343.09 K | 35.29
347.67 K | 35.21
347.75 K | 35.09
353.68 K | 34.7
353.76 K | 34.87

CCCCCCCC[n+]1ccn(C)c1.F[P-](F)(F)(F)(F)F [1-octyl-3-methylimidazolium hexafluorophosphate]
Details | surface tension liquid-gas [mN/m]
283.91 K | 34.75
283.92 K | 34.62
287.88 K | 34.48
293.41 K | 34.14
293.42 K | 34.36
298.13 K | 33.95
302.95 K | 33.56
303 K | 33.48
308.1 K | 33.27
308.14 K | 33.32
313.47 K | 32.98
313.51 K | 33.16
318.02 K | 32.9
318.04 K | 32.8
322.73 K | 32.52
322.79 K | 32.46
327.97 K | 32.12
327.98 K | 32.25
332.98 K | 32.02
333.05 K | 31.93
337.93 K | 31.81
337.95 K | 31.68
342.84 K | 31.46
343 K | 31.53
348.12 K | 31.26
348.18 K | 31.15
353.56 K | 30.94
353.62 K | 30.83

CCCn1cc[n+](C)c1.F[P-](F)(F)(F)(F)F [1-methyl-3-propylimidazolium hexafluorophosphate]
Details | surface tension liquid-gas [mN/m]
318.33 K | 46.41
318.39 K | 46.75
323.12 K | 46.09
323.13 K | 46.33
328.13 K | 45.76
328.14 K | 45.93
332.59 K | 45.52
332.63 K | 45.2
333.28 K | 45.82
338.14 K | 45.65
338.21 K | 45.14
343.25 K | 44.83
343.26 K | 44.86
348.02 K | 44.66
348.08 K | 44.54
352 K | 44.38
352.08 K | 44.31

CCCCn1cc[n+](C)c1.F[P-](F)(F)(F)(F)F [1-butyl-3-methylimidazolium hexafluorophosphate]
Details | surface tension liquid-gas [mN/m]
287.6 K | 44.41
288.14 K | 44.47
292.88 K | 44.11
292.99 K | 44.28
297.86 K | 44.03
298.34 K | 43.82
303.33 K | 43.64
303.37 K | 43.51
307.96 K | 43.24
308.21 K | 43.46
312.44 K | 43.13
312.88 K | 42.9
317.86 K | 42.58
318.23 K | 42.75
322.81 K | 42.21
322.98 K | 42.45
327.89 K | 42.14
327.91 K | 41.94
332.84 K | 41.86
333.31 K | 41.63
337.59 K | 41.57
337.97 K | 41.37
342.86 K | 41.05
343.06 K | 41.34
348.16 K | 40.95
348.34 K | 40.8
352.78 K | 40.47
352.99 K | 40.75
